From ChEMBL document CHEMBL4130634, “Discovery of Reversible DNA Methyltransferase and Lysine Methyltransferase G9a Inhibitors with Antitumoral in Vivo Efficacy” (J Med Chem, 2018)

Assays:
[1] = biological target: T1, Histone-lysine N-methyltransferase EHMT2 (Homo sapiens, UniProt Q96KQ7); experiment: Inhibition of human G9a using biotinylated-H3K9 peptide as substrate after 1 hr in presence of SAM by TR-FRET assay
T1 sequence (Q96KQ7 whole entry): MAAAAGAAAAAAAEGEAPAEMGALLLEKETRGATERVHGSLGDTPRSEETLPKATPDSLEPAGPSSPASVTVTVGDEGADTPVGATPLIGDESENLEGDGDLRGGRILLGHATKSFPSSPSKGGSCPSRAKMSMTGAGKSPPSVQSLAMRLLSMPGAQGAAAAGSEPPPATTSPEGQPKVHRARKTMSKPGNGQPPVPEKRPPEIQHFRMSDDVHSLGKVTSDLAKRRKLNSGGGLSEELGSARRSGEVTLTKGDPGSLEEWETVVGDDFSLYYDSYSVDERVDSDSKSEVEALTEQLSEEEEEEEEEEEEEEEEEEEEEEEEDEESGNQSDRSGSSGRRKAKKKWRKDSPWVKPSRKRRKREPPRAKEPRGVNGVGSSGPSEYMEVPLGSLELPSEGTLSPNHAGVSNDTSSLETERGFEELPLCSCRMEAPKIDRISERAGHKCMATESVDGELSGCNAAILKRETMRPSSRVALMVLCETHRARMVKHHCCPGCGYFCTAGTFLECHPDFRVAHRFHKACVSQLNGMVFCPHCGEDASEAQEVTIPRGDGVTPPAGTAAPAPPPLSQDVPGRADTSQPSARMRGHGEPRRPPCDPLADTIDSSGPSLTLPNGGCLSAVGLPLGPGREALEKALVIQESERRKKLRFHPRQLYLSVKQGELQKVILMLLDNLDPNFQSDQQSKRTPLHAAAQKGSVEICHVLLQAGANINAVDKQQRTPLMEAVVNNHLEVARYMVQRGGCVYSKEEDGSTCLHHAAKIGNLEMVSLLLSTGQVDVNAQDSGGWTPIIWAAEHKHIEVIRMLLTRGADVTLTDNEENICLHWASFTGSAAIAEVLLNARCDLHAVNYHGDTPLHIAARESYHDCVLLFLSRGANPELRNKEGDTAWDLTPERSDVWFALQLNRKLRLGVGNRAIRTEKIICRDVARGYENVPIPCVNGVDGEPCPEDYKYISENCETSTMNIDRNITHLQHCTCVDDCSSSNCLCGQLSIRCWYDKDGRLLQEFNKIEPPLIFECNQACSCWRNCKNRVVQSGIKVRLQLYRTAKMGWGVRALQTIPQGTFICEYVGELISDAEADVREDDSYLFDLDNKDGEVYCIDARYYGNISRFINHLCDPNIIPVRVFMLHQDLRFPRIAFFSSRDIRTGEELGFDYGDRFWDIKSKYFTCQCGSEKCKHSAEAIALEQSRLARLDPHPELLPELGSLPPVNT

[2] = biological target: DNA (cytosine-5)-methyltransferase 1 (Homo sapiens, UniProt P26358); experiment: Inhibition of human DNMT1 using polydeoxyinosine polydeoxycytosine DNA as substrate after 15 mins in presence of SAM by TR-FRET assay
Sequence of DNA (cytosine-5)-methyltransferase 1 (P26358 whole entry): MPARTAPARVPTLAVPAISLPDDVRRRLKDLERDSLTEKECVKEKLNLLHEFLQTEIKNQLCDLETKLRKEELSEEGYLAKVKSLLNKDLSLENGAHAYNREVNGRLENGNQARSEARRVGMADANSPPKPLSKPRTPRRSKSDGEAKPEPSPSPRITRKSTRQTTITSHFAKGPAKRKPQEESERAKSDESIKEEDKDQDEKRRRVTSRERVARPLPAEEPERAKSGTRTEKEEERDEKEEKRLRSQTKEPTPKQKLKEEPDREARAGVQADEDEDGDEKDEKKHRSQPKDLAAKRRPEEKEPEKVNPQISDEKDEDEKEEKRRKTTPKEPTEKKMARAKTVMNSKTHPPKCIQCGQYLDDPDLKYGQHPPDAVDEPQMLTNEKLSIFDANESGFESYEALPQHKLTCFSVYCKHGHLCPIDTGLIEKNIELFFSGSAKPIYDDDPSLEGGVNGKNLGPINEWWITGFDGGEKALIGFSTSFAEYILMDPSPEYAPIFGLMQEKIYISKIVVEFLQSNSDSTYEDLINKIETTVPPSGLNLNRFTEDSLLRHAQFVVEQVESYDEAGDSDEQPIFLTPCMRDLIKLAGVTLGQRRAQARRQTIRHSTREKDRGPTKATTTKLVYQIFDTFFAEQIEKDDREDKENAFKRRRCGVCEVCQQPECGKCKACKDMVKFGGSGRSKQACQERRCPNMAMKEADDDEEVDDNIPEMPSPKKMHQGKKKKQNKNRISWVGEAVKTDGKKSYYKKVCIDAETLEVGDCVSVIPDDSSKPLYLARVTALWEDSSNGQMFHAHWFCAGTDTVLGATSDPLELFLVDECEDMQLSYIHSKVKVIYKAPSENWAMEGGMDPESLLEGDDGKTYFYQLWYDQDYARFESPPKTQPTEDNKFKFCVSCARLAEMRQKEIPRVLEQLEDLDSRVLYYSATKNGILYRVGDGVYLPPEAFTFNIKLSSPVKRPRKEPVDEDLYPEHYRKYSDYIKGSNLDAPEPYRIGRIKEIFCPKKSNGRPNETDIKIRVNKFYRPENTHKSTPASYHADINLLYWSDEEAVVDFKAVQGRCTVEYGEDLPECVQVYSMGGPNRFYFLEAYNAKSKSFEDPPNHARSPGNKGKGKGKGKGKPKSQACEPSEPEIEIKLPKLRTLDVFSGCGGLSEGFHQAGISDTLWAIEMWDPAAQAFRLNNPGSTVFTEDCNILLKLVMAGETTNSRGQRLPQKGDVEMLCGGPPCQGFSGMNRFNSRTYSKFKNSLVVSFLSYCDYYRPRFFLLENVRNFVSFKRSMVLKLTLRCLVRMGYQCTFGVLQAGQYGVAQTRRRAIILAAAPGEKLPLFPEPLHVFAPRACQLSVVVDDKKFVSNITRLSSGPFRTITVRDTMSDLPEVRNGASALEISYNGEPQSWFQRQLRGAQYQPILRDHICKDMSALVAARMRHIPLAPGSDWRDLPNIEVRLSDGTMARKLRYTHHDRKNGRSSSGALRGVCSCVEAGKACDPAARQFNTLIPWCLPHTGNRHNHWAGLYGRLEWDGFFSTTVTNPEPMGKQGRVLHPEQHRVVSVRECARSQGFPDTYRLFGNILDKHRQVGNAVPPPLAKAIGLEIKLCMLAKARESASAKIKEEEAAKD

[3] = Permeability of the compound at 50 uM after 18 hrs by PAMPA; type: ADME; details: read-out: permeability
[4] = Growth inhibition of human CEMO1 cells at 1 uM after 48 hrs by MTS assay relative to control; type: functional; details: read-out: GI
[5] = Growth inhibition of human LAL-CUN-2 cells at 1 uM after 48 hrs by MTS assay relative to control; type: functional; details: read-out: GI
OCI-Ly3 [6] = experiment: Growth inhibition of human OCI-LY3 cells at 1 uM after 48 hrs by MTS assay relative to control; type: functional; details: OCI-Ly3, 48 h, read-out: GI
OCI-Ly10 [7] = experiment: Growth inhibition of human OCI-LY10 cells at 1 uM after 48 hrs by MTS assay relative to control; type: functional; details: OCI-Ly10, 48 h, read-out: GI
[8] = Growth inhibition of human CEMO1 cells after 48 hrs by MTS assay; type: functional
OCI-Ly3 [9] = experiment: Growth inhibition of human OCI-LY3 cells after 48 hrs by MTS assay; type: functional; details: OCI-Ly3, 48 h
OCI-Ly10 [10] = experiment: Growth inhibition of human OCI-LY10 cells after 48 hrs by MTS assay; type: functional; details: OCI-Ly10, 48 h
MV4-11 = experiment: Growth inhibition of human MV4-11 cells after 48 hrs by MTS assay; type: functional; details: MV4-11, 48 h
THLE-2 = experiment: Growth inhibition of human THLE2 cells after 72 hrs by MTS assay; type: cell-based; details: thle-2, 72 h
[11] = Growth inhibition of human CEMO1 cells at 10 uM after 48 hrs by MTS assay relative to control; type: functional; details: read-out: GI
[12] = Growth inhibition of human LAL-CUN-2 cells after 48 hrs by MTS assay; type: functional

| IC50 [1] [nM] | IC50 [2] [nM] | Structure (SMILES) | Papp at 18 h, 50 µM [3] [×10⁻⁶ cm/s] | inhibition of growth at 1 µM [4] [%] | also measured |
| --- | --- | --- | --- | --- | --- |
| 52 | 582 | COc1cc2c(NC3CCN(C)CC3)cc(-c3ccccc3C)nc2cc1OCCCN1CCCC1 |  |  |  |
| 148 | 1270 | COc1cc2c(NC3CCN(C)CC3)cc(-c3ccc(CN(C)C)o3)nc2cc1OCCCN1CCCC1 |  |  |  |
| 44 | 969 | COc1cc2c(NC3CCN(C)CC3)cc(-c3ccn(C)n3)nc2cc1OCCCN1CCCC1 |  | 10 | inhibition of growth at 1 µM [5]: 16%; inhibition of growth at 1 µM (OCI-Ly3 [6]): 16%; inhibition of growth at 1 µM (OCI-Ly10 [7]): 0% |
| 2720 | 1050 | COc1cc2c(NC3CCN(C)CC3)cc(-c3ccc(-c4ccccc4)o3)nc2cc1OCCCN1CCCC1 |  |  |  |
| 3140 | 1070 | COc1cc2c(NC3CCN(C)CC3)cc(-c3cc4ccccc4o3)nc2cc1OCCCN1CCCC1 |  |  |  |
| 6 | 929 | COc1cc2c(NC3CCN(C)CC3)cc(C)nc2cc1OCCCN1CCCC1 |  |  | inhibition of growth at 10 µM [11]: 14% |
| 1080 | > 10000 | COc1cc2c(NC3CCN(C)CC3)cc(-c3ccnn3C)nc2cc1OCCCN1CCCC1 | 0.09 |  |  |
| 142 | 1250 | COc1cc2c(NC3CCN(C)CC3)cc(-c3cc[nH]c(=O)c3)nc2cc1OCCCN1CCCC1 |  |  |  |
| 15 | 759 | COc1cc2c(NC3CCN(C)CC3)cc(-c3ccc(CO)o3)nc2cc1OCCCN1CCCC1 | 0.05 | 0 | inhibition of growth at 1 µM [5]: 19%; inhibition of growth at 1 µM (OCI-Ly3 [6]): 26%; inhibition of growth at 1 µM (OCI-Ly10 [7]): 1% |
| 40 | 1410 | COc1cc2c(NC3CCN(C)CC3)cc(-c3cccnc3)nc2cc1OCCCN1CCCC1 | 0.22 | 0 | inhibition of growth at 1 µM [5]: 16%; inhibition of growth at 1 µM (OCI-Ly3 [6]): 12%; inhibition of growth at 1 µM (OCI-Ly10 [7]): 17% |
| 264 | 1600 | COc1cc2c(NC3CCN(C)CC3)cc(-c3ccc(C#N)o3)nc2cc1OCCCN1CCCC1 |  |  |  |

The next lines start with the compound.

| Structure (SMILES) | IC50 [1] [nM] | IC50 [2] [nM] | Papp at 18 h, 50 µM [3] [×10⁻⁶ cm/s] | inhibition of growth at 1 µM [4] [%] | also measured |
| --- | --- | --- | --- | --- | --- |
| COc1cc2c(NC3CCN(C)CC3)cc(C3=CCOCC3)nc2cc1OCCCN1CCCC1 | 12 | 957 | 0.37 | 8 | inhibition of growth at 1 µM [5]: 0%; inhibition of growth at 1 µM (OCI-Ly3 [6]): 6%; inhibition of growth at 1 µM (OCI-Ly10 [7]): 16% |
| COc1cc(NC2CCN(C)CC2)c2cc(OC)c(OCCCN3CCCC3)cc2n1 | 136 | 2290 |  | 1 |  |
| CCc1ccc(-c2cc(NC3CCN(C4CC4)CC3)c3cc(OC)c(OCCCN4CCCC4)cc3n2)o1 | 24 | 274 | 5.56 |  | GI50 [8]: 917 nM; GI50 (OCI-Ly3 [9]): 1560 nM; GI50 (OCI-Ly10 [10]): 236 nM; GI50 (MV4-11): 3510 nM; LC50 (THLE-2): 703 nM |
| Nc1ncn([C@@H]2O[C@H](CO)[C@@H](O)[C@H]2O)c(=O)n1 [AZACITIDINE] |  | 300 |  |  |  |
| COc1cc2c(NC3CCN(C)CC3)cc(-c3ccc(C)[nH]3)nc2cc1OCCCN1CCCC1 | 0.5 | 232 |  |  | GI50 [8]: 1650 nM; inhibition of growth at 1 µM [5]: 12%; GI50 (OCI-Ly3 [9]): 896 nM; GI50 (OCI-Ly10 [10]): 915 nM; LC50 (THLE-2): 7680 nM |
| COc1cc2c(NC3CCN(C)CC3)cc(C3CCCCC3)nc2cc1OCCCN1CCCC1 | 2 | 497 | 1.98 | 20 | GI50 (MV4-11): > 10000 nM; LC50 (THLE-2): 34800 nM |
| COc1cc2c(NC3CCN(C)CC3)cc(C3CCOCC3)nc2cc1OCCCN1CCCC1 | 17 | 4420 | 0.22 | 20 | inhibition of growth at 1 µM [5]: 6%; inhibition of growth at 1 µM (OCI-Ly3 [6]): 0%; inhibition of growth at 1 µM (OCI-Ly10 [7]): 3% |
| COc1cc2c(NC3CCN(C)CC3)cc(N3CCN(C)CC3)nc2cc1OCCCN1CCCC1 | 42 | 945 |  |  | inhibition of growth at 10 µM [11]: 14% |
| COc1cc2c(NC3CCN(C)CC3)cc(-c3ccc(C)s3)nc2cc1OCCCN1CCCC1 | 43 | 230 | 2.91 |  | GI50 [8]: 555 nM; inhibition of growth at 1 µM (OCI-Ly3 [6]): 21%; inhibition of growth at 1 µM (OCI-Ly10 [7]): 42%; GI50 (MV4-11): 3100 nM; LC50 (THLE-2): 4060 nM |
| COc1cc2c(NC3CCN(C)CC3)cc(C(F)(F)F)nc2cc1OCCCN1CCCC1 | 637 | > 10000 |  | 24 |  |
| Nc1ncn([C@H]2C[C@H](O)[C@@H](CO)O2)c(=O)n1 [DECITABINE] |  | 30 |  |  |  |
| CCNCc1ccc(-c2cc(NC3CCN(C)CC3)c3cc(OC)c(OCCCN4CCCC4)cc3n2)o1 | 48 | 618 | 0.13 | 0 | inhibition of growth at 1 µM [5]: 3%; inhibition of growth at 1 µM (OCI-Ly3 [6]): 0%; inhibition of growth at 1 µM (OCI-Ly10 [7]): 0% |
| COc1cc2c(NC3CCN(C)CC3)cc(C3CCC(C)O3)nc2cc1OCCCN1CCCC1 (configuration not stated) | 27 | 1370 |  |  |  |
| COc1cc2c(NC3CCN(C)CC3)cc(C3=CCCCC3)nc2cc1OCCCN1CCCC1 | 6 | 494 | 2.09 |  | GI50 [8]: 1180 nM; GI50 [12]: 4290 nM; LC50 (THLE-2): 7580 nM |
| COc1cc2c(NC3CCN(C)CC3)nc(-c3ccc(C)o3)nc2cc1OCCCN1CCCC1 | 336 | 2250 |  |  |  |
| CCc1ccc(-c2cc(NC3CCN(C(C)C)CC3)c3cc(OC)c(OCCCN4CCCC4)cc3n2)o1 | 3 | 284 | 3.83 |  | GI50 [8]: 441 nM; GI50 (MV4-11): 971 nM; LC50 (THLE-2): 1720 nM |
| COc1cc2c(NC3CCNCC3)cc(-c3ccc(C)o3)nc2cc1OCCCN1CCCC1 | 6 | 137 | 0.2 |  | GI50 [8]: 1980 nM; GI50 [12]: > 5000 nM; GI50 (OCI-Ly3 [9]): 1270 nM; GI50 (OCI-Ly10 [10]): > 4000 nM; LC50 (THLE-2): 8850 nM |
| COc1cc2c(NC3CCN(C)CC3)cc(-c3ccccc3)nc2cc1OCCCN1CCCC1 | 15 | 1050 | 1.69 |  | GI50 [8]: 658 nM; inhibition of growth at 1 µM [5]: 7%; GI50 (OCI-Ly3 [9]): 717 nM; GI50 (OCI-Ly10 [10]): 420 nM; GI50 (MV4-11): 2600 nM; LC50 (THLE-2): 5620 nM |
